Data reported in patent publication US20220273608A1, “Methods for Treating Bone-Related Disorders” (University of Maryland, Baltimore, priority 2016, published 2022).
Entries after “also recorded” stand apart in the source; their conditions may differ. Like-named read-outs stand apart in the source and are kept apart here.

Legend:
[1] = test system: CaMKII; format: cell-based; conditions: for phospho-CaMKII (CaMKII activation): independently of FSS
Method: (§1) Cells in culture were exposed to fluid flow using a custom FSS device (63). Cell media was removed and cells were rinsed in HEPES-buffered Ringer solution containing 140 mM NaCl, 4 mM KCl, 1 mM MgSO4, 5 mM NaHCO3, 10 mM glucose, 1.8 mM CaCl2 and 10 mM HEPES (pH 7.3). Ringer solution was also used as fluid flow buffer. For Calcium-free conditions, HEPES-buffered Manganese Ringer solution, containing 140 mM NaCl, 4 mM KCl, 1 mM MgSO4, 5 mM NaHCO3, 10 mM glucose, 2 mM MnCI and 10 mM HEPES (pH 7.3), was used, and cells were loaded with BATPA AM ester (10 μM, 30 min).

[2] = test system: sclerostin; experiment: Immunoblotting for sclerostin / GAPDH in Ocy454 cells; format: cell-based, mouse; conditions: for sclerostin protein: independently of FSS
Method: as §1

[3] = test system: Ocy454 cells; experiment: ROS imaging (CellROX) of Ocy454 cells; format: cell-based, mouse; conditions: for ROS production: no FSS, CellROX
Method: (§2) Cells in culture were exposed to fluid flow using a custom FSS device (63). Cell media was removed and cells were rinsed in HEPES-buffered Ringer solution containing 140 mM NaCl, 4 mM KCl, 1 mM MgSO4, 5 mM NaHCO3, 10 mM glucose, 1.8 mM CaCl2 and 10 mM HEPES (pH 7.3). Ringer solution was also used as fluid flow buffer. For Calcium-free conditions, HEPES-buffered Manganese Ringer solution, containing 140 mM NaCl, 4 mM KCl, 1 mM MgSO4, 5 mM NaHCO3, 10 mM glucose, 2 mM MnCI and 10 mM HEPES (pH 7.3), was used, and cells were loaded with BATPA AM ester (10 μM, 30 min). […] For Ca^2+ imaging, cells were loaded with Fluo-4 AM ester (ThermoFisher, 5 μM) for 30 min, washed, and allowed to rest for 15 min to allow dye de-esterification, as described. For ROS imaging, cells were loaded with CellROX (ThermoFisher, 5 μM) for 30 min and then washed 3 times, per the manufacturer's recommendations. Individual wells were imaged as described (39). Time-lapse fluorescence intensity measurements were collected using ImageJ Time Series Analyzer plugin and data was analyzed and plotted using Origin Pro software. Final results represent a minimum of three independent experiments performed on separate days with new cultures (n>700 cells/treatment group). All conditions were run with controls on each experimental day.

[4] = test system: Ocy454 cells; experiment: Ca2+ imaging (Fluo-4) of Ocy454 cells, with or without fluid shear stress; format: cell-based, mouse
Method: as §2

[5] = test system: Ocy454 cells; experiment: Immunostaining for α-tubulin (microtubule network) in Ocy454 cells; conditions: α-tubulin immunofluorescence
[6] = test system: Glu-tubulin; conditions: Ocy454 cells in vitro
Source text: The antibodies used were: a-tubulin (Sigma, T9026), Glu-tubulin (Abcam, ab48389) and TRPV4 (Abcam, ab39260).
Western blotting of whole cell extracts isolated from cells in culture following FSS or extracts isolated from murine long bone were done. Equal amounts of protein were loaded and electrophoresed on 10% SDS-PAGE gels and transferred to polyvinylidene difluoride membranes. Membranes were blocked in 5% non-fat dry milk (unless otherwise stated), probed with the indicated primary antibodies overnight and 4° C. Antibodies were detected with the appropriate horseradish peroxidase-conjugated secondary antibodies (Cell Signaling Technology) and enhanced chemiluminescence detection reagent (Biorad). […] Blots were acquired using an EpiChem gel documentation system (UVP Bioimaging Systems) and analyzed using ImageJ software.

[7] = test system: Ocy454 cells; experiment: Atomic force microscopy nano-indentation of Ocy454 cells; format: cell-based, mouse; conditions: AFM nanoindentation, 2 h treatment
Method: Ocy454 cells were plated onto 22 mm×22 mm glass coverslips and allowed to grow for 16-24 h at 37° C., 5% CO2 with αMEM media. Thereafter, cells were washed with PBS before being incubated with pharmacological agents as indicated for 2 h at 37° C., 5% CO2 in αMEM. After each treatment, cells were transferred to 60 mm culture dishes with pre-warmed HEPES based media containing identical concentrations of the aforementioned agents. Cells were probed with an MFP-1D atomic force microscope (Asylum Research) using MLCT cantilevers (Bruker) with a nominal spring constant of k=0.01 N/m. The pull distance used was 2 μm with a tip velocity of 4 μm/s to generate ˜1-2 nN of force onto the cell corresponding to ˜1 μm indentation ensuring that the cytoskeleton was effectively being probed. The elastic moduli (stiffness) of the cells were calculated using the Sneddon Hertz model as described (66).

[8] = test system: Glu-tubulin; experiment: Glu-tubulin in ex vivo murine long bone (western blot); conditions: murine cortical bone ex vivo
Source text: The antibodies used were: sclerostin (R&D Sytems, AF1589), α-tubulin (Sigma, T9026), Glu-tubulin (Abcam, ab48389), phospho-CamK II Thr^286 (Cell Signaling Technologies, 12716S), total CaMKII (Cell Signaling Technologies, 11945S), and GAPDH (Millipore, MAB374).

[9] = test system: sclerostin; experiment: Bone derived sclerostin in colchicine treated aged mice; format: in vivo; conditions: aged mice (78 weeks), 1 mg/L colcrys in drinking water, 8 weeks
[10] = test system: aged mice; experiment: White adipose tissue in colchicine treated aged mice
[11] = test system: aged mice; experiment: Bone formation and bone mass (DEXA, microCT) in colchicine treated aged mice; format: in vivo
[12] = test system: aged mice; experiment: Muscle testing in colchicine treated aged mice; format: in vivo; conditions: 8 weeks colchicine
Method: Young and aged mice were treated with colchicine as per the bone formation study followed by euthanasia and muscle testing. After 8 weeks aged mice had increased muscle power.

[13] = cells treated with H2O2, no FSS
[14] = whole body DEXA, 8 weeks colchicine

CC(=O)OCOC(=O)CN(CC(=O)OCOC(C)=O)c1ccccc1OCCOc1ccccc1N(CC(=O)OCOC(C)=O)CC(=O)OCOC(C)=O [BAPTA AM]
FSS-induced CaMKII phosphorylation ([1]; 4 dynes/cm^2 FSS): inhibited
FSS-induced decrease in sclerostin protein ([2]; 4 dynes/cm^2 FSS): inhibited

O=C(NC1(c2ccccc2)CC1)c1c(CN2CCC(N3CCCCC3)CC2)c(-c2cccc(C(F)(F)F)c2)nc2cc(Br)ccc12 [GSK2193874]
FSS-induced CaMKII phosphorylation ([1]; 4 dynes/cm^2 FSS): reduction
FSS-induced decrease in sclerostin protein ([2]; 4 dynes/cm^2 FSS): blunted
H2O2-induced ROS [3, 13]: without affecting
% Cells Responding to FSS, Ca2+ response (mechano-sensitivity) ([4]; 4 dynes/cm^2 FSS): statistically significant decrease
Peak(ΔF/F) magnitude of Ca2+ response (mechano-responsiveness) ([4]; 4 dynes/cm^2 FSS): statistically significant decrease
H2O2-induced Ca2+ influx [4, 13]: blunted

CC(C)C[C@H](NC(=O)c1cc2ccccc2s1)C(=O)N1CCN(C(=O)[C@H](CO)NS(=O)(=O)c2ccc(Cl)cc2Cl)CC1 [GSK-1016790A]
phospho-CaMKII (CaMKII activation) [1]: activation
sclerostin protein [2]: reduction
ROS production [3]: insufficient to induce

OO [H2O2, Hydrogen peroxide]
phospho-CaMKII (CaMKII activation) [1]: increased
sclerostin protein [2]: reduced
ROS production [3]: stimulated
intracellular Ca2+ ([4]; no FSS, Fluo-4): stimulated

COc1ccc(S(=O)(=O)N(CCO)c2ccccc2CN(C)C/C=C/c2ccc(Cl)cc2)cc1 [KN-93]
FSS-induced decrease in sclerostin protein ([2]; 4 dynes/cm^2 FSS): prevented

CC(=O)N[C@@H](CS)C(=O)O [NAC, N-acetylcysteine]
FSS-induced CaMKII phosphorylation ([1]; FSS, magnitude not stated): reduction
FSS-induced decrease in sclerostin protein ([2]; FSS, magnitude not stated): blunting
FSS-induced Ca2+ response ([4]; 4 dynes/cm^2 FSS): abrogated
FSS-induced Ca2+ response ([4]; 16 dynes/cm^2 FSS): abrogated

CC(=O)O[C@H]1C(=O)[C@@]2(C)[C@H]([C@H](OC(=O)c3ccccc3)[C@]3(O)C[C@H](OC(=O)[C@H](O)[C@@H](NC(=O)c4ccccc4)c4ccccc4)C(C)=C1C3(C)C)[C@]1(OC(C)=O)CO[C@@H]1C[C@@H]2O [Taxol]
microtubule network density / structure [5]: increase in microtubule density
amount of Glu-tubulin [6]: markedly increased; also recorded: marked increase
FSS-induced CaMKII phosphorylation ([1]; 4 dynes/cm^2 FSS): reduced; also recorded: blunts
FSS-induced CaMKII phosphorylation ([1]; 16 dynes/cm^2 FSS): restored
FSS-induced decrease in sclerostin protein ([2]; 4 dynes/cm^2 FSS): blunts
FSS-induced decrease in sclerostin protein ([2]; 16 dynes/cm^2 FSS): restored
elastic modulus (cytoskeletal stiffness) [7]: increased
amount of Glu-tubulin [8]: markedly increased
% Cells Responding to FSS, Ca2+ response (mechano-sensitivity) ([4]; 4 dynes/cm^2 FSS): statistically significant decrease
FSS-induced Ca2+ response ([4]; 4 dynes/cm^2 FSS): blunts
Peak(ΔF/F) magnitude of Ca2+ response (mechano-responsiveness) ([4]; 4 dynes/cm^2 FSS): decrease
% Cells Responding to FSS, Ca2+ response (mechano-sensitivity) ([4]; 16 dynes/cm^2 FSS): restored
Peak(ΔF/F) magnitude of Ca2+ response (mechano-responsiveness) ([4]; 16 dynes/cm^2 FSS): restored

COc1cc2c(c(OC)c1OC)-c1ccc(OC)c(=O)cc1[C@@H](NC(C)=O)CC2 [colchicine]
bone derived sclerostin [9]: decreased; also recorded: reduced
white adipose accumulation / fat mass in white adipose depots [10]: reduced
adipocyte area ([10]; 8 weeks colchicine): 1441.64 μm^2
gonadal fat ([10]; 8 weeks colchicine): reduced
inguinal fat ([10]; 8 weeks colchicine): reduced
microtubule network density / structure [5]: reduction
FSS-induced CaMKII phosphorylation ([1]; 4 dynes/cm^2 FSS): eliminated
FSS-induced decrease in sclerostin protein ([2]; 4 dynes/cm^2 FSS): eliminated
% Cells Responding to FSS, Ca2+ response (mechano-sensitivity) ([4]; 4 dynes/cm^2 FSS): decreased
Peak(ΔF/F) magnitude of Ca2+ response (mechano-responsiveness) ([4]; 4 dynes/cm^2 FSS): reducing
% Cells Responding to FSS, Ca2+ response (mechano-sensitivity) ([4]; 16 dynes/cm^2 FSS): decreased
Peak(ΔF/F) magnitude of Ca2+ response (mechano-responsiveness) ([4]; 16 dynes/cm^2 FSS): reducing
trabecular bone mass ([11]; 8 weeks colchicine): No changes were observed
bone accumulation ([11]; aged mice): increases
bone formation rate (BFR) on the cortical bone perimeter ([11]; aged mice (78 weeks), 1 mg/L colcrys in drinking water, 8 weeks): increased; also recorded: improved
cortical bone volume ([11]; microCT, 8 weeks colchicine): tended towards increases
polar mean moment of inertia ([11]; microCT, 8 weeks colchicine): tended towards increases
bone mineral content (BMC) [11, 14]: tended towards increases
bone mineral density (BMD) [11, 14]: tended towards increases
maximum contraction velocity [12]: increase
maximum muscle power [12]: increase; also recorded: improved
muscle mass in the gastrocnemius muscle [12]: did not increase
